Columns and labels:
Format in all cases: functional
M14 = assay: Growth inhibition of human M14 cells assessed as cell growth at 10 uM after 48 hrs by sulforhodamine B assay relative to control; conditions: M14, 48 h, read-out: Activity
[1] = Growth inhibition of human OVCAR5 cells assessed as cell growth at 10 uM after 48 hrs by sulforhodamine B assay relative to control; conditions: OVCAR-5, 48 h, read-out: Activity
SK-OV-3 = assay: Growth inhibition of human SKOV3 cells assessed as cell growth at 10 uM after 48 hrs by sulforhodamine B assay relative to control; conditions: SK-OV-3, 48 h, read-out: Activity
NCI-H460 = assay: Growth inhibition of human NCI-H460 cells assessed as cell growth at 10 uM after 48 hrs by sulforhodamine B assay relative to control; conditions: NCI-H460, 48 h, read-out: Activity
HOP-62 [2] = assay: Growth inhibition of human HOP62 cells assessed as cell growth at 10 uM after 48 hrs by sulforhodamine B assay relative to control; conditions: HOP-62, 48 h, read-out: Activity
[3] = Growth inhibition of human RXF393 cells assessed as cell growth at 10 uM after 48 hrs by sulforhodamine B assay relative to control; conditions: RXF 393, 48 h, read-out: Activity
SF-268 = assay: Growth inhibition of human SF268 cells assessed as cell growth at 10 uM after 48 hrs by sulforhodamine B assay relative to control; conditions: SF-268, 48 h, read-out: Activity
[4] = Growth inhibition of human OVCAR4 cells assessed as cell growth at 10 uM after 48 hrs by sulforhodamine B assay relative to control; conditions: OVCAR-4, 48 h, read-out: Activity
HT-29 = assay: Growth inhibition of human HT-29 cells assessed as cell growth at 10 uM after 48 hrs by sulforhodamine B assay relative to control; conditions: HT-29, 48 h, read-out: Activity
KM12 = assay: Growth inhibition of human KM12 cells assessed as cell growth at 10 uM after 48 hrs by sulforhodamine B assay relative to control; conditions: KM12, 48 h, read-out: Activity
HL-60(TB) = assay: Growth inhibition of human HL-60(TB) cells assessed as cell growth at 10 uM after 48 hrs by sulforhodamine B assay relative to control; conditions: HL-60, 48 h, read-out: Activity
RPMI-8226 = assay: Growth inhibition of human RPMI8226 cells assessed as cell growth at 10 uM after 48 hrs by sulforhodamine B assay relative to control; conditions: RPMI-8226, 48 h, read-out: Activity
[5] = Growth inhibition of human SF295 cells assessed as cell growth at 10 uM after 48 hrs by sulforhodamine B assay relative to control; conditions: SF-295, 48 h, read-out: Activity
NCI-H226 = assay: Growth inhibition of human NCI-H226 cells assessed as cell growth at 10 uM after 48 hrs by sulforhodamine B assay relative to control; conditions: NCI-H226, 48 h, read-out: Activity
SW-620 = assay: Growth inhibition of human SW620 cells assessed as cell growth at 10 uM after 48 hrs by sulforhodamine B assay relative to control; conditions: SW-620, 48 h, read-out: Activity
[6] = Growth inhibition of human MOLT4 cells assessed as cell growth at 10 uM after 48 hrs by sulforhodamine B assay relative to control; conditions: MOLT-4, 48 h, read-out: Activity
IGROV-1 = assay: Growth inhibition of human IGROV1 cells assessed as cell growth at 10 uM after 48 hrs by sulforhodamine B assay relative to control; conditions: IGROV-1, 48 h, read-out: Activity
CAKI-1 = assay: Growth inhibition of human CAKI-1 cells assessed as cell growth at 10 uM after 48 hrs by sulforhodamine B assay relative to control; conditions: CAKI-1, 48 h, read-out: Activity
PC-3 = assay: Growth inhibition of human PC3 cells assessed as cell growth at 10 uM after 48 hrs by sulforhodamine B assay relative to control; conditions: PC-3, 48 h, read-out: Activity
NCI-H522 = assay: Growth inhibition of human NCI-H522 cells assessed as cell growth at 10 uM after 48 hrs by sulforhodamine B assay relative to control; conditions: NCI-H522, 48 h, read-out: Activity
SNB-19 = assay: Growth inhibition of human SNB19 cells assessed as cell growth at 10 uM after 48 hrs by sulforhodamine B assay relative to control; conditions: SNB-19, 48 h, read-out: Activity
MDA-MB-435 = assay: Growth inhibition of human MDA-MB-435 cells assessed as cell growth at 10 uM after 48 hrs by sulforhodamine B assay relative to control; conditions: MDA-MB-435, 48 h, read-out: Activity
[7] = Growth inhibition of human OVCAR3 cells assessed as cell growth at 10 uM after 48 hrs by sulforhodamine B assay relative to control; conditions: OVCAR-3, 48 h, read-out: Activity
NCI-H322M = assay: Growth inhibition of human NCI-H322M cells after 48 hrs by sulforhodamine B assay
[8] = Growth inhibition of human SF539 cells after 48 hrs by sulforhodamine B assay; conditions: SF-539, 48 h
SK-MEL-28 = assay: Growth inhibition of human SK-MEL-28 cells after 48 hrs by sulforhodamine B assay; conditions: SK-MEL-28, 48 h
HOP-62 [9] = assay: Growth inhibition of human HOP62 cells after 48 hrs by sulforhodamine B assay; conditions: HOP-62, 48 h
SN12C = assay: Growth inhibition of human SN12C cells after 48 hrs by sulforhodamine B assay
SK-MEL-2 = assay: Growth inhibition of human SK-MEL-2 cells after 48 hrs by sulforhodamine B assay; conditions: SK-MEL-2, 48 h
[10] = read-out: LC50 (the source's name)
[11] = read-out: pLC50 (the source's name) (converted)

O=C1CS/C(=N\c2nc(-c3ccccc3Cl)cc(-c3ccc(Cl)cc3Cl)n2)N1
growth at 10 µM (M14): 94%
growth at 10 µM [1]: 108%
growth at 10 µM (SK-OV-3): 95.4%
growth at 10 µM (NCI-H460): 103%
growth at 10 µM (HOP-62 [2]): 87.5%
growth at 10 µM [3]: 111%
growth at 10 µM (SF-268): 92.2%
growth at 10 µM [4]: 96.1%
growth at 10 µM (HT-29): 107%
growth at 10 µM (KM12): 97.7%
growth at 10 µM (HL-60(TB)): 96.1%
growth at 10 µM (RPMI-8226): 99.6%
growth at 10 µM [5]: 116%
growth at 10 µM (NCI-H226): 104%
growth at 10 µM (SW-620): 92.9%
growth at 10 µM [6]: 92%
growth at 10 µM (IGROV-1): 98.2%
growth at 10 µM (CAKI-1): 88.6%
growth at 10 µM (PC-3): 83.8%
growth at 10 µM (NCI-H522): 88.6%
growth at 10 µM (SNB-19): 101%
growth at 10 µM (MDA-MB-435): 78.5%
growth at 10 µM [7]: 101%

O=C1N/C(=N/c2nc(-c3ccccc3Cl)cc(-c3ccc(Cl)cc3Cl)n2)S/C1=C/c1ccc(Cl)cc1
growth at 10 µM (M14): 102%
growth at 10 µM [1]: 102%
growth at 10 µM (SK-OV-3): 99.2%
growth at 10 µM (NCI-H460): 87.2%
growth at 10 µM (HOP-62 [2]): 80.2%
growth at 10 µM [3]: 100%
growth at 10 µM (SF-268): 90.9%
growth at 10 µM [4]: 81.9%
growth at 10 µM (HT-29): 103%
growth at 10 µM (KM12): 79.8%
growth at 10 µM (HL-60(TB)): 87.1%
growth at 10 µM (RPMI-8226): 83.6%
growth at 10 µM [5]: 48.6%
growth at 10 µM (NCI-H226): 98.5%
growth at 10 µM (SW-620): 76.6%
growth at 10 µM [6]: 94.2%
growth at 10 µM (IGROV-1): 82.3%
growth at 10 µM (CAKI-1): 97.2%
growth at 10 µM (PC-3): 79%
growth at 10 µM (NCI-H522): 82.3%
growth at 10 µM (SNB-19): 93.4%
growth at 10 µM (MDA-MB-435): 32.1%
growth at 10 µM [7]: 89.2%

Nc1nc(-c2ccccc2Cl)cc(-c2ccc(Cl)cc2Cl)n1
growth at 10 µM (M14): 53.5%
growth at 10 µM [1]: 96.2%
growth at 10 µM (SK-OV-3): 93%
growth at 10 µM (NCI-H460): 49.8%
growth at 10 µM (HOP-62 [2]): 76.2%
growth at 10 µM [3]: 75.8%
growth at 10 µM (SF-268): 65.9%
GI50 (NCI-H322M; read-out: GI50): 31.2 µM
CC50 (NCI-H322M; [10]): > 100 µM
TGI (NCI-H322M; read-out: TGI): > 100 µM
GI50 (NCI-H322M; read-out: pGI50 (converted)): 30.9 µM
CC50 (NCI-H322M; [11]): > 100 µM
TGI (NCI-H322M; read-out: pTGI): > 100 µM
GI50 ([8]; read-out: GI50): 7.39 µM
CC50 [8, 10]: > 100 µM
TGI ([8]; read-out: TGI): 67 µM
GI50 ([8]; read-out: pGI50 (converted)): 7.41 µM
CC50 [8, 11]: > 100 µM
TGI ([8]; read-out: pTGI (converted)): 67.6 µM
GI50 (SK-MEL-28; read-out: GI50): 20.9 µM
CC50 (SK-MEL-28; [10]): > 100 µM
TGI (SK-MEL-28; read-out: TGI): > 100 µM
GI50 (SK-MEL-28; read-out: pGI50 (converted)): 20.9 µM
CC50 (SK-MEL-28; [11]): > 100 µM
TGI (SK-MEL-28; read-out: pTGI): > 100 µM
growth at 10 µM [4]: 79.6%
growth at 10 µM (HT-29): 36.6%
growth at 10 µM (KM12): 53.8%
GI50 (HOP-62 [9]; read-out: GI50): 8.21 µM
CC50 (HOP-62 [9]; [10]): > 100 µM
TGI (HOP-62 [9]; read-out: TGI): > 100 µM
GI50 (HOP-62 [9]; read-out: pGI50 (converted)): 8.13 µM
CC50 (HOP-62 [9]; [11]): > 100 µM
TGI (HOP-62 [9]; read-out: pTGI): > 100 µM
growth at 10 µM (HL-60(TB)): 51.4%
growth at 10 µM (RPMI-8226): 35.2%
growth at 10 µM [5]: 38.7%
GI50 (SN12C; read-out: GI50): 13.1 µM
CC50 (SN12C; [10]): > 100 µM
TGI (SN12C; read-out: TGI): > 100 µM
GI50 (SN12C; read-out: pGI50 (converted)): 13.2 µM
CC50 (SN12C; [11]): > 100 µM
TGI (SN12C; read-out: pTGI): > 100 µM
growth at 10 µM (NCI-H226): 87.7%
growth at 10 µM (SW-620): 39%
growth at 10 µM [6]: 52.6%
growth at 10 µM (IGROV-1): 74.7%
growth at 10 µM (CAKI-1): 68%
growth at 10 µM (PC-3): 74.2%
growth at 10 µM (NCI-H522): 68.5%
growth at 10 µM (SNB-19): 78.2%
growth at 10 µM (MDA-MB-435): 0.07%
growth at 10 µM [7]: 85.2%
GI50 (SK-MEL-2; read-out: GI50): 6.1 µM
CC50 (SK-MEL-2; [10]): > 100 µM
TGI (SK-MEL-2; read-out: TGI): 44.7 µM
GI50 (SK-MEL-2; read-out: pGI50 (converted)): 6.17 µM
CC50 (SK-MEL-2; [11]): > 100 µM
TGI (SK-MEL-2; read-out: pTGI (converted)): 44.7 µM

Source: ChEMBL document CHEMBL3286379, “Design and synthesis of pyrimidine molecules endowed with thiazolidin-4-one as new anticancer agents” (Eur J Med Chem, 2014)
